From ChEMBL document CHEMBL4732191, “Synthesis of novel potent cytotoxicy podophyllotoxin-naphthoquinone compounds via microwave-assited multicomponent domino reactions” (Bioorg Med Chem Lett, 2021)

Assays:
KB = test: Cytotoxicity against human KB cells; type: functional, cell-based
HepG2 = test: Cytotoxicity against human HepG2 cells; type: functional, cell-based
SK-LU-1 = test: Cytotoxicity against human SK-LU-1 cells; type: functional, cell-based
MCF7 = test: Cytotoxicity against human MCF7 cells; type: functional, cell-based
HEK293 = test: Cytotoxicity against human HEK293 cells; type: cell-based
[1] = Selectivity index, ratio of IC50 for human HEK293 cells to IC50 for human HepG2 cells; type: toxicity; settings: HEK293 cells and HepG2 cells, read-out: Ratio IC50
[2] = Selectivity index, ratio of IC50 for human HEK293 cells to IC50 for human SK-LU-1 cells

## Cc1c2ccncc2c(C)c2c1[nH]c1ccccc12 [ELLIPTECINE]
KB
  IC50: 1750 nM
HepG2
  IC50: 1660 nM
SK-LU-1
  IC50: 1540 nM
MCF7
  IC50: 1580 nM
HEK293
  IC50: 1.69 µM

## O=C1OCC2=C1C(c1ccc(F)cc1)C1=C(N2)C(=O)c2ccccc2C1=O (stereo not drawn)
KB
  IC50: 2160 nM
HepG2
  IC50: 440 nM
SK-LU-1
  IC50: 280 nM
MCF7
  IC50: > 2500 nM
HEK293
  IC50: 5.35 µM

## O=C1OCC2=C1C(c1ccc3c(c1)C(=O)OC3)C1=C(N2)C(=O)c2ccccc2C1=O (stereo not drawn)
KB
  IC50: 1860 nM
HepG2
  IC50: 470 nM
SK-LU-1
  IC50: 80 nM
MCF7
  IC50: > 2500 nM
HEK293
  IC50: 4.78 µM

## Cc1ccc(C2C3=C(COC3=O)NC3=C2C(=O)c2ccccc2C3=O)cc1 (stereo not drawn)
KB
  IC50: > 2500 nM
HepG2
  IC50: 2240 nM
SK-LU-1
  IC50: 1650 nM
MCF7
  IC50: > 2500 nM
HEK293
  IC50: 21.6 µM

## O=C1OCC2=C1C(c1cccc3ccccc13)C1=C(N2)C(=O)c2ccccc2C1=O (stereo not drawn)
KB
  IC50: > 2500 nM
HepG2
  IC50: > 2500 nM
SK-LU-1
  IC50: > 2500 nM
MCF7
  IC50: > 2500 nM
HEK293
  IC50: 14.7 µM

## O=C1OCC2=C1C(c1ccc(C(F)(F)F)cc1)C1=C(N2)C(=O)c2ccccc2C1=O (stereo not drawn)
KB
  IC50: 800 nM
HepG2
  IC50: 1240 nM
SK-LU-1
  IC50: 510 nM
MCF7
  IC50: > 2500 nM
HEK293
  IC50: 7.59 µM

## O=C1OCC2=C1C(c1ccc(Cl)cc1)C1=C(N2)C(=O)c2ccccc2C1=O (stereo not drawn)
KB
  IC50: 1460 nM
HepG2
  IC50: 1350 nM
SK-LU-1
  IC50: 500 nM
MCF7
  IC50: > 2500 nM
HEK293
  IC50: 5.89 µM

## O=C1OCC2=C1C(c1ccccc1F)C1=C(N2)C(=O)c2ccccc2C1=O (stereo not drawn)
KB
  IC50: 1190 nM
HepG2
  IC50: 420 nM
SK-LU-1
  IC50: 280 nM
MCF7
  IC50: > 2500 nM
HEK293
  IC50: 10.3 µM

## O=C1OCC2=C1C(c1ccccc1)C1=C(N2)C(=O)c2ccccc2C1=O (stereo not drawn)
KB
  IC50: 1540 nM
HepG2
  IC50: < 44 nM
SK-LU-1
  IC50: < 44 nM
MCF7
  IC50: 1980 nM
HEK293
  IC50: 1.34 µM
[1]
  selectivity ratio: ≥ 200
[2]
  Ratio IC50: >=200

## COc1ccc(C2C3=C(COC3=O)NC3=C2C(=O)c2ccccc2C3=O)cc1 (stereo not drawn)
KB
  IC50: 880 nM
HepG2
  IC50: 2060 nM
SK-LU-1
  IC50: 880 nM
MCF7
  IC50: > 2500 nM
HEK293
  IC50: 8.17 µM

## O=C1OCC2=C1C(c1cccc(Br)c1)C1=C(N2)C(=O)c2ccccc2C1=O (stereo not drawn)
KB
  IC50: 1710 nM
HepG2
  IC50: < 36 nM
SK-LU-1
  IC50: < 36 nM
MCF7
  IC50: > 2500 nM
HEK293
  IC50: 7.2 µM
[1]
  selectivity ratio: ≥ 200
[2]
  Ratio IC50: >=200

## COc1cc(C2C3=C(COC3=O)NC3=C2C(=O)c2ccccc2C3=O)ccc1O (stereo not drawn)
KB
  IC50: 1900 nM
HepG2
  IC50: 410 nM
SK-LU-1
  IC50: 410 nM
MCF7
  IC50: > 2500 nM
HEK293
  IC50: 1.41 µM

## COc1cccc(C2C3=C(COC3=O)NC3=C2C(=O)c2ccccc2C3=O)c1 (stereo not drawn)
KB
  IC50: 1230 nM
HepG2
  IC50: 460 nM
SK-LU-1
  IC50: < 40 nM
MCF7
  IC50: > 2500 nM
HEK293
  IC50: 9.35 µM
[1]
  selectivity ratio: ≥ 200
[2]
  Ratio IC50: >=200

## O=C1OCC2=C1C(c1ccccc1[N+](=O)[O-])C1=C(N2)C(=O)c2ccccc2C1=O (stereo not drawn)
KB
  IC50: 2340 nM
HepG2
  IC50: > 2500 nM
SK-LU-1
  IC50: 2220 nM
MCF7
  IC50: > 2500 nM
HEK293
  IC50: 9.95 µM

## O=C1OCC2=C1C(c1cccc([N+](=O)[O-])c1)C1=C(N2)C(=O)c2ccccc2C1=O (stereo not drawn)
KB
  IC50: 1160 nM
HepG2
  IC50: < 39 nM
SK-LU-1
  IC50: < 39 nM
MCF7
  IC50: 2190 nM
HEK293
  IC50: 1.47 µM
[1]
  selectivity ratio: ≥ 200
[2]
  Ratio IC50: >=200

## O=C1OCC2=C1C(c1ccc3ccccc3c1)C1=C(N2)C(=O)c2ccccc2C1=O (stereo not drawn)
KB
  IC50: > 2500 nM
HepG2
  IC50: 1680 nM
SK-LU-1
  IC50: 1020 nM
MCF7
  IC50: > 2500 nM
HEK293
  IC50: 7.61 µM

## O=C1OCC2=C1C(c1ccc(Br)cc1)C1=C(N2)C(=O)c2ccccc2C1=O (stereo not drawn)
KB
  IC50: 2140 nM
HepG2
  IC50: 1500 nM
SK-LU-1
  IC50: 450 nM
MCF7
  IC50: > 2500 nM
HEK293
  IC50: 8.27 µM
